{"source": "patent US8541464B2", "about": "“Treatment of atrial fibrillation” (HUYA Biosciences International LLC, priority 2009, dated 2013)", "key": {"[1]": {"assay": "Plasma concentration in minipig cardiovascular safety study", "format": "in vivo", "method": "(§1) A Swan Ganz (thermodilution catheter) was inserted into the right femoral vein via phlebotomy and advanced into the pulmonary artery for cardiac output measurements. A catheter was inserted in the left femoral artery via an arteriotomy for blood gas determination. Another catheter was inserted in the left femoral vein for blood collection for toxicokinetic evaluation. Finally, an incision was also performed on the left side of the neck to expose the left carotid artery and an electronic dual pressure sensor catheter (Millar) was placed via arteriotomy and advanced into the left ventricle. The catheter was positioned to simultaneously collect left ventricle blood pressure measurements as well as aortic pressure. In addition, a temporary catheter was placed in any of the cephalic veins for administration of Lactated Ringers at 10 mL/kg/hr throughout the course of the experiment.\n(§2) Following surgical preparation, hemodynamic and electrocardiographic parameters were allowed to stabilize for at least 15 minutes. The vehicle control and test article were then administered, and hemodynamic, electrocardiographic, histamine and PK parameters were monitored.\nPeak plasma concentrations of sulcardine sulfate increased with increasing dose. […]"}, "anesthetized dogs": {"test_system": "anesthetized dogs", "assay": "Cardiovascular safety in anesthetized dogs, escalating 15-minute IV infusions (hemodynamics, histamine, ECG)", "format": "in vivo, dog", "method": "(§3) Dogs were administered morphine (2 mg/kg subcutaneously) approximately 10-19 minutes prior to administration of anesthesia. Dogs were anesthetized with 1% α-chloralose (100 mg/kg intravenous), followed by a constant infusion of α-chloralose (35-75 mg/kg/hr, IV). Two healthy female dogs were administered escalating doses of sulcardine sulfate intravenously over 15 minutes in an acetate buffer system at dose levels of 10, 30 and 90-mg/kg with dose administrations separated by 60 minutes. Following drug administration, dogs were evaluated for ventricular, pulmonary and peripheral hemodynamic changes using Swanz Ganz and femoral catheters as well as by monitoring of blood oxygen saturation, test article blood level, body temperature, blood biochemistries, hematologies, ECG, and histamine.\nas §3, with “90 mg/kg” for “90-mg/kg”, “minutes. Another set of two dogs received test article after pre-treatment with diphenhydramine (1 mg/kg administered 30 minutes prior to start of test article infusion).” for “minutes.”, “biochemistry, hematology,” for “biochemistries, hematologies,”, “histamine levels.” for “histamine.”"}, "Cynomolgus monkeys": {"test_system": "Cynomolgus monkeys", "assay": "Cardiovascular safety in anesthetized Cynomolgus monkeys, escalating 15-minute IV infusions", "format": "in vivo, Cynomolgus monkey", "method": "Female Cynomolgus monkeys were administered morphine (2 mg/kg subcutaneously) prior to induction of anesthesia. Monkeys were anesthetized with 1% α-chloralose (100 mg/kg intravenous), followed by a constant infusion of α-chloralose 40 mg/kg/hr, IV which was reduced to 30 mg/kg/hr approximately 92 to 98 min pre treatment due to low blood pressure. Monkeys were placed on a heating pad set to maintain the animal's body temperature at approximately 37° C. Body temperature was monitored throughout the experiment via a rectal thermometer or via the Swan Ganz (thermodilution catheter) once implanted. Monkeys were intubated and placed on a ventilator supplemented with oxygen to maintain oxygenation within the normal physiological range. The animals were mechanically ventilated at a rate of 12 breaths/minute and a pressure of 17-18 cm H2O. The following parameters were regularly monitored in order to ensure proper ventilation of the animals but are not reported: SpO2, inspiratory and expiratory CO2, inspiratory O2 and respiratory rate.\nas §1\nFollowing surgical preparation, hemodynamic and electrocardiographic parameters were allowed to stabilize for at least 15 minutes. The vehicle control and test article were then administered, and hemodynamic, electrocardiographic parameters were monitored. Histamine and plasma PK data was obtained."}, "post-MI beagle dogs": {"test_system": "post-MI beagle dogs", "assay": "Hemodynamic effects in anesthetized post-MI sudden cardiac death model", "format": "in vivo, beagle dog", "conditions": "15 mg/kg", "method": "A hemodynamic effects study of sulcardine sulfate in an anesthetized post-MI sudden cardiac death model study was also performed. The study population consisted of ten purpose-bred, female beagle dogs, weighing 10.0-12.0 Kg. The animals had left ventricular wall ischemic injury induced by a 90-minute occlusion of the left anterior descending coronary artery followed by reperfusion. Five animals were treated with sulcardine sulfate (15 mg/kg) infused intravenously over 10 minutes, and the remaining five animals were vehicle dogs treated with 0.9% sodium chloride solution (placebo). Lowest mean arterial blood pressure was measured every 15 minutes for a total period of 120 minutes after treatment."}, "minipigs": {"test_system": "minipigs", "assay": "Cardiovascular safety in anesthetized minipigs, escalating 15-minute IV infusions", "format": "in vivo, minipig", "method": "Animals were administered morphine (2 mg/kg subcutaneously) prior to induction of anesthesia. […] Animals were placed on a heating pad set to maintain the animal's body temperature at approximately 37° C. Body temperature was monitored throughout the experiment via a rectal thermometer or via the Swan Ganz (thermodilution catheter) once implanted. Animals were intubated and placed on a ventilator supplemented with oxygen to maintain oxygenation within the normal physiological range. The animals were mechanically ventilated at a rate of 11-13 breaths/minute and a peak inspiratory pressure of 18 cm H2O. The following parameters were regularly monitored in order to ensure proper ventilation of the animals but are not reported: SpO2, inspiratory and expiratory CO2, inspiratory O2 and respiratory rate.\nas §1, §2"}}, "note": "“And” between values parts separate entries of the source, which are not always exact repeats. Equal entries are not always repeated."}
{"substance": "sulcardine sulfate", "values": [{"measurement": "mean peak plasma concentration", "setting": "[1]; 90 mg/kg, 15 minute infusion", "result": "25.6 ug/mL and 56.3 μM"}, {"measurement": "Cmax", "setting": "[1]; minipigs, read-out: Cmax that led to observed side effects such as hypotension", "result": 13.6, "unit": "µM"}, {"measurement": "mean arterial pressure initial increase", "setting": "anesthetized dogs; 10 mg/kg, one animal out of two, maximum at 10 minutes post start of dosing", "result": "+66%"}, {"measurement": "QTc prolongation", "setting": "anesthetized dogs; 10 mg/kg, within 5 minutes of initiation", "result": "≤ 20", "unit": "ms"}, {"measurement": "maximum histamine plasma concentration", "setting": "anesthetized dogs; 10 mg/kg, at 5 min and 10 min post-Rx respectively", "result": "1874 nM and 1919 nM"}, {"measurement": "maximum histamine plasma concentration", "setting": "anesthetized dogs; 30 mg/kg", "result": "251 nM and 183 nM"}, {"measurement": "QTc prolongation", "setting": "anesthetized dogs; 30 mg/kg infusion, cumulative", "result": "approximately 35 msec"}, {"measurement": "maximum histamine plasma concentration", "setting": "anesthetized dogs; 90 mg/kg", "result": "99 nM and 64 nM"}, {"measurement": "mortality", "setting": "anesthetized dogs; 90 mg/kg, final 15-minute infusion", "result": "all animals succumbed"}, {"measurement": "QRS widening", "setting": "anesthetized dogs; all dose levels (10, 30, 90 mg/kg)", "result": "QRS widening was also noted at all dose levels"}, {"measurement": "heart rate (HR) change (relatively stable)", "setting": "Cynomolgus monkeys; 10 mg/kg", "result": "≤ 10", "unit": "%"}, {"measurement": "histamine levels", "setting": "Cynomolgus monkeys; 10 mg/kg", "result": "no appreciable increases"}, {"measurement": "PR interval increase", "setting": "Cynomolgus monkeys; 10 mg/kg, per animal", "result": "+18% and +30%"}, {"measurement": "increase of QRS from baseline", "setting": "Cynomolgus monkeys; 10 mg/kg, per animal", "result": "11% and 26%"}, {"measurement": "conduction abnormality", "setting": "Cynomolgus monkeys; 30 mg/kg infusion, animal 1501A", "result": "right bundle branch block (RBBB)"}, {"measurement": "mean pulmonary arterial pressure increase", "setting": "Cynomolgus monkeys; 30 mg/kg, at the completion of infusion", "result": "up to +245%"}, {"measurement": "conduction abnormality", "setting": "Cynomolgus monkeys; 90 mg/kg infusion / shortly before death, animal 1602B", "result": "sino-atrial block with a ventricular escape rhythm and RBBB"}, {"measurement": "mortality", "setting": "Cynomolgus monkeys; 90 mg/kg, before completion of the 15-minute infusion", "result": "death in both animals"}, {"measurement": "QRS interval increase from baseline", "setting": "Cynomolgus monkeys; 90 mg/kg, per animal", "result": "88% and 133%"}, {"measurement": "QTcB increase from baseline", "setting": "Cynomolgus monkeys; 90 mg/kg, per animal", "result": "78 ms and 112 ms"}, {"measurement": "PR interval increase", "setting": "Cynomolgus monkeys; 30 and 90 mg/kg", "result": "Further increases were noted"}, {"measurement": "histamine levels", "setting": "Cynomolgus monkeys; Animal No. 1501A, after 10 minutes of the 30 mg/kg infusion", "result": "transient increases"}, {"measurement": "histamine levels", "setting": "Cynomolgus monkeys; Animal No. 1602B, any dose levels", "result": "No appreciable increases"}, {"measurement": "time after completion of infusion by which arterial blood pressure was not different from baseline or placebo", "setting": "post-MI beagle dogs", "result": "≤ 50", "unit": "min"}, {"measurement": "mean arterial blood pressure compared to baseline values", "setting": "post-MI beagle dogs; at fifteen, thirty, and forty-five minutes after completing a 10 minute infusion, P<0.05", "result": "significantly lower"}, {"measurement": "QTcC prolongation", "setting": "minipigs; 10 mg/kg, Animal 1601C", "result": 15, "unit": "%"}, {"measurement": "PR interval increase", "setting": "minipigs; 10 mg/kg, per animal", "result": "+38% and +10%"}, {"measurement": "mortality", "setting": "minipigs; 90 mg/kg, during or at completion of the 15-minute infusion", "result": "both animals succumbed"}, {"measurement": "QTcC prolongation", "setting": "minipigs; 30 and 90 mg/kg, both animals", "result": "up to 30%"}, {"measurement": "histamine levels", "setting": "minipigs; all doses", "result": "no appreciable increases"}, {"measurement": "QRS durations", "setting": "minipigs; starting at 10 mg/kg, both animals", "result": "dose dependent pattern of increasing QRS durations"}]}
